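Where inhibition never reached the appropriate level, the endpoint shown equals the highest concentration tested. Otherwise, values were interpolated linearly from a five-concentration, 48-hour dose response in 96-well plates. GI50 = concentration required for 50% inhibition of growth. Definition used: TGI = concentration required for complete inhibition of growth.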
How the values were obtained:
Test in all cases: NCI anticancer screen, dose series, 48 h
ACHN renal = tested on: ACHN renal
HCT-15 colon = tested on: HCT-15 colon
HOP-62 NSCLC = tested on: HOP-62 NSCLC
LOX IMVI melanoma = tested on: LOX IMVI melanoma
NCI-H226 lung = tested on: NCI-H226 lung
NCI-H23 lung = tested on: NCI-H23 lung
RPMI-8226 leukemia = tested on: RPMI-8226 leukemia
SF-539 CNS = tested on: SF-539 CNS
TK-10 renal = tested on: TK-10 renal
UO-31 renal = tested on: UO-31 renal

SMILES	GI50 (ACHN renal) [µM]	TGI (ACHN renal) [µM]	GI50 (HCT-15 colon) [µM]	TGI (HCT-15 colon) [µM]	GI50 (HOP-62 NSCLC) [µM]	TGI (HOP-62 NSCLC) [µM]	GI50 (LOX IMVI melanoma) [µM]	TGI (LOX IMVI melanoma) [µM]	GI50 (NCI-H226 lung) [µM]	TGI (NCI-H226 lung) [µM]	GI50 (NCI-H23 lung) [µM]	TGI (NCI-H23 lung) [µM]	GI50 (RPMI-8226 leukemia) [µM]	TGI (RPMI-8226 leukemia) [µM]	GI50 (SF-539 CNS) [µM]	TGI (SF-539 CNS) [µM]	GI50 (TK-10 renal) [µM]	TGI (TK-10 renal) [µM]	GI50 (UO-31 renal) [µM]	TGI (UO-31 renal) [µM]
O=C(Nc1ccccc1)Nc1cccc(-n2cc(-c3ccncc3)c(-c3ccc(O)c(Cl)c3)n2)c1	2.95	34.7	2.84	> 100	4.93	53.6	2.54	25.6	7.35	> 100	3.82	21.4	2.35	6.13	1.96	4.5	6.91	54.6	3.43	31.8
COc1ccc(/C(C)=C(\c2ccc(Cl)cc2)c2ccc(OCCN3CCCC3)cc2)cc1F	4.06	7.44	0.848	3.38	3.92	8.22	1.04	3.66	4.47	8.88	3.55	7.27	3.57	9.23	2.74	5.75	3.58	8.13	2.95	6.26
Nc1ncnc(NC2C=C(CO)C(O)C2O)c1[N+](=O)[O-] (stereo not given)	–	> 100	–	> 100	–	> 100	–	> 100	–	> 100	–	> 100	–	> 100	–	> 100	–	> 100	–	> 100
S=c1nc2[nH]ncc2c(N/N=C/c2ccccc2)[nH]1	63.3	> 100	81.3	> 100	> 100	> 100	64	> 100	> 100	> 100	> 100	> 100	60.6	> 100	> 100	> 100	> 100	> 100	> 100	> 100
CCOC(=O)c1c(-c2ccccc2)[n+](=O)c2ccc(Cl)cc2n1[O-]	2.93	11.3	3.89	13.6	8.64	20.8	1.66	3.91	5.2	17.4	11.2	23.4	2.44	6.62	2.97	13.1	4.55	23.6	1.92	3.69
O=C(O)CC(Nc1ccccc1)C(=O)O (stereo not given)	–	> 100	–	> 100	–	> 100	–	> 100	–	> 100	–	> 100	–	> 100	–	> 100	–	> 100	–	> 100
C#CCN=C(N/N=C/c1ccc([N+](=O)[O-])o1)NS(=O)(=O)c1cc(C)c(Cl)cc1SCC(N)=O	16.7	36.8	22.1	56.4	12.9	25.7	8.14	35.2	20.1	40.5	18.5	33.1	12.8	34.5	17.3	31.7	22.2	38.3	17.6	31.4
O=C(O)c1ccc(O)c(N=Nc2cc(S(=O)(=O)O)c3ccccc3c2O)c1	–	> 100	–	> 10	–	35.6	–	> 100	–	> 100	–	> 100	–	> 100	–	> 10	–	> 100	–	> 100
COc1cc(C#N)cc(OC)c1OCCOCCOc1c(OC)cc(C#N)cc1OC	> 100	> 100	> 100	> 100	> 100	> 100	> 100	> 100	81.2	> 100	> 100	> 100	29.9	> 100	> 100	> 100	> 100	> 100	26.4	> 100
COc1cc(/C=C/C(=O)c2ccc(Nc3ncnc4ccccc34)cc2)cc(OC)c1	13.9	63.9	7.63	48.7	7.13	22.1	1.85	4.16	2.45	8.91	5.08	38.2	0.227	0.715	4.98	18	8.4	24.4	10.5	28.6
COc1ccc2c(c1)CCc1c(-c3noc4c3CCc3cc(OC)ccc3-4)noc1-2	–	> 100	–	> 100	–	> 100	–	> 100	–	> 100	–	> 100	–	> 100	–	> 100	–	> 100	–	> 100
COc1ccc(/C=C2\CN(Cc3cn(CCCNc4ccnc5cc(Cl)ccc45)nn3)C/C(=C\c3ccc(OC)c(OC)c3)C2=O)cc1OC	1.64	3.11	2.03	5.02	2.42	4.54	1.08	2.43	1.97	4.74	2.36	7.26	1.46	5.65	1.99	4.76	2.95	7.92	1.53	2.88
COc1ccc(NC(=O)C(=O)C2CNC(=O)NC2=O)c(OC)c1 (stereo not given)	–	> 100	–	> 100	–	> 100	–	> 100	–	> 100	–	> 100	–	> 100	–	> 100	–	> 100	–	> 100
NC1=C(Cl)C(=O)c2ccc(S(N)(=O)=O)cc2C1=O	0.263	0.895	0.164	0.339	0.251	0.596	0.0367	0.182	0.231	0.595	0.176	0.517	0.354	2.04	0.2	0.379	1.56	2.95	0.211	0.564

— PubChem BioAssay (NCI)
